# Counter-ions that a name gives are not always drawn.
# Biological target: T1, human MDM2 (GST-hMDM2 1-188), interaction with biotinylated-p53 (1-83) (Homo sapiens, UniProt Q00987)
# T1 construct: Amino acid residues 1-188 of human MDM2 were expressed; made in house; host or cells: Escherichia coli
# Test: improved HTRF assay (HTRF2 assay), inhibition of HDM2-p53 interaction
# Assay type: binding
# Details: 0.2 nM GST-hMDM2, 0.5 nM biotinylated-p53, 100 mM KF
# In short: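 GST-hMDM2 preincubated 20 min at RT with serially diluted compound, then biotinylated p53 (1-83, E. coli) added for 60 min. Detection with SA-XLent, anti-GST cryptate and KF, equilibrated >4 h; final DMSO 2%. TR-FRET read; % inhibition calculated relative to nutlin-3.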
# T1 sequence (Q00987 1-188): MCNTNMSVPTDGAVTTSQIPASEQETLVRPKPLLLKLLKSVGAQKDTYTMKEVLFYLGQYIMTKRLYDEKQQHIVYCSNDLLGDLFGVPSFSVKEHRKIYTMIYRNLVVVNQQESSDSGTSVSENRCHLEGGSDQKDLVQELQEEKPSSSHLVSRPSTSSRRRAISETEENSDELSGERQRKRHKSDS
row,Compound,IC50 [nM]
1,"O=C(O)C[C@@]1(CC(F)(F)F)O[C@H](c2cccc(Cl)c2)[C@@H](c2ccc(Cl)cc2)N([C@H](CN(c2ccccc2F)S(=O)(=O)C2CC2)C2CC2)C1=O (single isomer, unassigned) [Example 333, 2-((2S,5R,6R)-6-(3-Chlorophenyl)-5-(4-chlorophenyl)-4-((S)-1-cyclopropyl-2-(N-(2-fluorophenyl)cyclopropanesulfonamido)ethyl)-3-oxo-2-(2,2,2-trifluoroethyl)morpholin-2-yl)acetic acid or 2-((2R,5R,6R)-6-(3-chlorophenyl)-5-(4-chlorophenyl)-4-((S)-1-cyclopropyl-2-(N-(2-fluorophenyl)cyclopropanesulfonamido)ethyl)-3-oxo-2-(2,2,2-trifluoroethyl)morpholin-2-yl)acetic acid]",199
2,"CC(C)[C@@H](CS(=O)(=O)C(C)(C)C)N1C(=O)[C@@H](CC(=O)O)O[C@H](c2cccc(Cl)c2)[C@H]1c1ccc(Cl)c(F)c1 (single isomer, unassigned) [Example 313]",38
3,"CC(C)(C)S(=O)(=O)C[C@H](C1CC1)N1C(=O)[C@@H](CC(=O)Nc2ccccn2)O[C@H](c2cccc(Cl)c2)[C@H]1c1ccc(Cl)cc1 (single isomer, unassigned) [Example 354, 2-((2R,5R,6R)-4-((S)-2-(tert-Butylsulfonyl)-1-cyclopropylethyl)-6-(3-chlorophenyl)-5-(4-chlorophenyl)-3-oxomorpholin-2-yl)-N-(pyridin-2-yl)acetamide or 2-((2S,5R,6R)-4-((S)-2-(tert-butylsulfonyl)-1-cyclopropylethyl)-6-(3-chlorophenyl)-5-(4-chlorophenyl)-3-oxomorpholin-2-yl)-N-(pyridin-2-yl)acetamide]",2
4,"CC[C@@H](CS(=O)(=O)C(C)(C)CC)N1C(=O)[C@H](CC(=O)O)O[C@H](c2cccc(Cl)c2)[C@H]1c1ccc(Cl)cc1 (single isomer, unassigned) [Example 123, 2-((2S,5R,6R)-6-(3-Chlorophenyl)-5-(4-chlorophenyl)-3-oxo-4-((S)-1-(tert-pentylsulfonyl)butan-2-yl)morpholin-2-yl)acetic acid or 2-((2R,5R,6R)-6-(3-Chlorophenyl)-5-(4-chlorophenyl)-3-oxo-4-((S)-1-(tert-pentylsulfonyl)butan-2-yl)morpholin-2-yl)acetic acid]",1
5,"CC[C@@H](CN(c1ccccc1F)S(=O)(=O)C1CC1)N1C(=O)[C@@H](CC(=O)O)O[C@H](c2cccc(Cl)c2)[C@H]1c1ccc(Cl)s1 (single isomer, unassigned) [Example 217, 2-((2R,5S,6R)-6-(3-chlorophenyl)-5-(5-chlorothiophen-2-yl)-4-((S)-1-(N-(2-fluorophenyl)cyclopropanesulfonamido)butan-2-yl)-3-oxomorpholin-2-yl)acetic acid or 2-((2S,5S,6R)-6-(3-chlorophenyl)-5-(5-chlorothiophen-2-yl)-4-((S)-1-(N-(2-fluorophenyl)cyclopropanesulfonamido)butan-2-yl)-3-oxomorpholin-2-yl)acetic acid]",< 1
6,"CNC(=O)C[C@H]1O[C@H](c2cccc(Cl)c2)[C@@H](c2ccc(Cl)cc2)N([C@@H](C)CS(=O)(=O)C(C)(C)C)C1=O (single isomer, unassigned) [Example 228, 2-((2R,5R,6R)-4-((S)-1-(tert-butylsulfonyl)propan-2-yl)-6-(3-chlorophenyl)-5-(4-chlorophenyl)-3-oxomorpholin-2-yl)-N-methylacetamide or 2-((2S,5R,6R)-4-((S)-1-(tert-butylsulfonyl)propan-2-yl)-6-(3-chlorophenyl)-5-(4-chlorophenyl)-3-oxomorpholin-2-yl)-N-methylacetamide]",14
7,"C[C@@H](CS(=O)(=O)C(C)(C)C)N1C(=O)[C@@H](CC(=O)NCCO)O[C@H](c2cccc(Cl)c2)[C@H]1c1ccc(Cl)cc1 (single isomer, unassigned) [Example 234, 2-((2R,5R,6R)-4-((S)-1-(tert-butylsulfonyl)propan-2-yl)-6-(3-chlorophenyl)-5-(4-chlorophenyl)-3-oxomorpholin-2-yl)-N-(2-hydroxyethyl)acetamide or 2-((2S,5R,6R)-4-((S)-1-(tert-butylsulfonyl)propan-2-yl)-6-(3-chlorophenyl)-5-(4-chlorophenyl)-3-oxomorpholin-2-yl)-N-(2-hydroxyethyl)acetamide]",15
8,"CC[C@@H]([C@H](C)S(=O)(=O)C(C)(C)C)N1C(=O)[C@@H](CC(=O)O)O[C@H](c2cccc(Cl)c2)[C@H]1c1ccc(Cl)cc1 (single isomer, unassigned) [Example 420]",12
9,"Cc1n[nH]c(C[C@H]2O[C@H](c3cccc(Cl)c3)[C@@H](c3ccc(Cl)cc3)N([C@H](CN(c3ccccc3F)S(=O)(=O)C3CC3)C3CC3)C2=O)n1 (single isomer, unassigned) [Example 393, N-((S)-2-((2R,3R,6R)-2-(3-Chlorophenyl)-3-(4-chlorophenyl)-6-((3-methyl-1H-1,2,4-triazol-5-yl)methyl)-5-oxomorpholino)-2-cyclopropylethyl)-N-(2-fluorophenyl)cyclopropanesulfonamide or N-((S)-2-((2S,3R,6R)-2-(3-chlorophenyl)-3-(4-chlorophenyl)-6-((3-methyl-1H-1,2,4-triazol-5-yl)methyl)-5-oxomorpholino)-2-cyclopropylethyl)-N-(2-fluorophenyl)cyclopropanesulfonamide]",< 1
10,"CC[C@@H](CS(=O)(=O)C(C)(C)C)N1C(=O)C(CN)O[C@H](c2cccc(Cl)c2)[C@H]1c1ccc(Cl)cc1 (mixture of isomers) [Example 378, (2R,5R,6R)-2-(Aminomethyl)-4-((S)-1-(tert-butylsulfonyl)butan-2-yl)-6-(3-chlorophenyl)-5-(4-chlorophenyl)morpholin-3-one hydrochloride and (2S,5R,6R)-2-(aminomethyl)-4-((S)-1-(tert-butylsulfonyl)butan-2-yl)-6-(3-chlorophenyl)-5-(4-chlorophenyl)morpholin-3-one hydrochloride]",142
11,"C[C@@H](CS(=O)(=O)C(C)(C)C)N1C(=O)[C@H](CC(=O)N2CCOCC2)O[C@H](c2cccc(Cl)c2)[C@H]1c1ccc(Cl)cc1 (single isomer, unassigned) [Example 235, (2S,5R,6R)-4-((S)-1-(tert-butylsulfonyl)propan-2-yl)-6-(3-chlorophenyl)-5-(4-chlorophenyl)-2-(2-morpholino-2-oxoethyl)morpholin-3-one or (2R,5R,6R)-4-((S)-1-(tert-butylsulfonyl)propan-2-yl)-6-(3-chlorophenyl)-5-(4-chlorophenyl)-2-(2-morpholino-2-oxoethyl)morpholin-3-one]",11
12,"(2R,5R,6R)-4-((S)-2-(tert-Butylsulfonyl)-1-cyclopropylethyl)-6-(3-chlorophenyl)-5-(4-chlorophenyl)-2-((3-methyl-1H-1,2,4-triazol-5-yl)methyl)morpholin-3-one and (2S,5R,6R)-4-((S)-2-(tert-butylsulfonyl)-1-cyclopropylethyl)-6-(3-chlorophenyl)-5-(4-chlorophenyl)-2-((3-methyl-1H-1,2,4-triazol-5-yl)methyl)morpholin-3-one [Example 391]",4
13,"CC(C)(C)S(=O)(=O)C[C@H](C1CC1)N1C(=O)[C@@](C)(CC(=O)O)O[C@H](c2cccc(Cl)c2)[C@H]1c1ccc(Cl)cc1 (single isomer, unassigned) [Example 334, 2-((2R,5R,6R)-4-((S)-2-(tert-Butylsulfonyl)-1-cyclopropylethyl)-6-(3-chlorophenyl)-5-(4-chlorophenyl)-2-methyl-3-oxomorpholin-2-yl)acetic acid or 2-((2S,5R,6R)-4-((S)-2-(tert-butylsulfonyl)-1-cyclopropylethyl)-6-(3-chlorophenyl)-5-(4-chlorophenyl)-2-methyl-3-oxomorpholin-2-yl)acetic acid]",< 1
14,"O=C1[C@@H](Cc2cnn[nH]2)O[C@H](c2cccc(Cl)c2)[C@@H](c2ccc(Cl)cc2)N1[C@H](CN(c1ccccc1F)S(=O)(=O)C1CC1)C1CC1 (single isomer, unassigned) [Example 395, N-((S)-2-((2R,5R,6R)-2-((1H-1,2,3-Triazol-5-yl)methyl)-6-(3-chlorophenyl)-5-(4-chlorophenyl)-3-oxomorpholino)-2-cyclopropylethyl)-N-(2-fluorophenyl)cyclopropanesulfonamide or N-((S)-2-((2S,5R,6R)-2-((1H-1,2,3-triazol-5-yl)methyl)-6-(3-chlorophenyl)-5-(4-chlorophenyl)-3-oxomorpholino)-2-cyclopropylethyl)-N-(2-fluorophenyl)cyclopropanesulfonamide]",1
15,"CC[C@@H](CS(=O)(=O)C(C)(C)C)N1C(=O)[C@@H](CCOC)O[C@H](c2cccc(Cl)c2)[C@H]1c1ccc(Cl)cc1 [Example 153, (2R,5R,6R)-4-((S)-1-(tert-butylsulfonyl)butan-2-yl)-6-(3-chlorophenyl)-5-(4-chlorophenyl)-2-(2-methoxyethyl)morpholin-3-one]",59
16,"NC(=O)C[C@H]1O[C@H](c2cccc(Cl)c2)[C@@H](c2ccc(Cl)cc2)N([C@H](CN(c2c(F)cccc2F)S(=O)(=O)C2CC2)C2CC2)C1=O (single isomer, unassigned) [Example 359, 2-((2R,5R,6R)-6-(3-Chlorophenyl)-5-(4-chlorophenyl)-4-((S)-1-cyclopropyl-2-(N-(2,6-difluorophenyl)cyclopropanesulfonamido)ethyl)-3-oxomorpholin-2-yl)acetamide or 2-((2S,5R,6R)-6-(3-chlorophenyl)-5-(4-chlorophenyl)-4-((S)-1-cyclopropyl-2-(N-(2,6-difluorophenyl)cyclopropanesulfonamido)ethyl)-3-oxomorpholin-2-yl)acetamide]",< 1
